We go through 90 compounds from a melting point compilation (Tetko et al.; mined from patent text by program, amines drawn as free bases though some values may be those of a salt).

One may read the melting point as the temperature, or range, at which the solid turns liquid. `O=C(O[C@@H]1CCN(CC#CCN2CCCC2)C1=O)c1ccc([N+](=O)[O-])cc1` displayed a melting point of 89 to 90 °C. The figure for `CCOC(=O)CN(c1ccccc1)[C@H]1c2cc(C#N)ccc2OC(C)(C)[C@@H]1O` is 182 to 183 °C; for `Cc1ccc(C(c2ccc(C)cc2)(c2ccc(C)cc2)c2ccc(C#N)cc2)cc1` it is 207 to 209 °C.

In turn, `CCOc1cc2c(cc1OCC)C1CC(=O)C(CC)CN1CC2` (stereo not given) had a melting point of 115 to 118 °C. To `CN1CCN(C(=O)Oc2ccccc2)C1=C(C(=O)Oc1ccccc1)[N+](=O)[O-]` belongs 214 to 215 °C; to `CCOC(=O)C(O)=CC(=O)c1ccc(C)o1`, 88 to 92 °C; to `O=C(C=Cc1ccc(Cl)c(Cl)c1)C1CC1`, 74 to 76 °C. With `CN(C)c1ccc2c(c1)C(=O)CC(c1ccccc1OCc1ccccc1)=N2`, the melting point was 210 to 212 °C. With `CCOC(=O)CNc1ncccc1NC(=O)c1ccc(Cl)c(Cl)c1`, the melting point was in the range of 137 to 138 °C. The figure for `CC(C)(C)c1cccc(S(=O)(=O)Nc2ncc(C(F)(F)F)cc2I)c1` is 135 °C; for `O=C(Cc1ccccc1)NC1C(=O)N2CC(C(=O)OCc3ccc([N+](=O)[O-])cc3)SC12` (stereo not given) it is 181 to 183 °C. The figure for `CCOC(=O)CCCCNc1ncc([N+](=O)[O-])cc1[N+](=O)[O-]` is 70 to 72 °C; for `CCCS(=O)c1cc(OCCOc2ccccc2)ccc1C` (stereo not given) it is 115 to 116 °C; for `Oc1cccc2c1CCC(N(CCCF)CCc1cccs1)C2` (stereo not given) it is 105 to 109 °C. `CC(=O)c1ccc(NC(=O)Nc2cc(C(C)=O)cc(C(C)=O)c2)cc1` registered a melting point of 251 to 252 °C. The figure for `O=C(/C=C\c1ccccc1)Nc1ccccc1` is 101 to 102 °C; for `NS(=O)(=O)N1CCN(c2ccc(Cl)cc2)CC1` it is 218 to 220 °C. To `Cc1ccc(N2CSC(=NCc3ccc(C(F)(F)C(F)(F)F)cc3)N(CC(F)(F)F)C2=O)cc1` belongs 103 to 104 °C; to `c1ccc(-c2cnns2)cc1`, 46 to 48 °C. Turning to `Cc1c(C(=O)O)nc2c(=O)[nH]c3cc(F)ccc3n12`, the melting point is greater than 250 °C.

Consider `COc1ccc(C2CC=CCC2NC(=O)c2ccc(OCC3CC3)c(OCC3CC3)c2)cc1OC` (stereo not given), for which the melting point was 152 to 154 °C. Consider `CC(=O)Nc1ccc(-c2cccc(-c3nc(C(C)C)[nH]c3-c3cccc(C)n3)c2)cc1`, for which the melting point fell in the range of 140 to 145 °C.

The compound `COc1ccccc1C(=O)N(c1ccccc1)c1ccc(OCCN(C)C)cc1` showed a melting point of 82.5 to 85.5 °C.

Take `O=[N+]([O-])c1cc(-c2ccoc2)ccc1Nc1cccc(-n2ccnc2)n1`: the melting point lay within 173 to 174 °C.

`Cc1c(O)c(O)cc2ccccc12` displayed a melting point of 97 to 100 °C.

Compound `COC1(c2cc(F)cc(OCC#Cc3ccc(Cc4nc(-c5ccccc5)c(-c5ccc(S(N)(=O)=O)cc5)o4)cc3)c2)CCOCC1` returned a melting point of 86 to 100 °C. Take `Cc1c(-c2ccc([N+](=O)[O-])o2)nc(N)n2c(C)nnc12`: the melting point came to 290 °C. `O=C(NCCc1ccccc1)c1ccccc1-c1ccccc1CN1C(=O)c2ccccc2C1=O` returned a melting point of 156 °C. As for `CC1CON2C(=O)c3cc(Cl)ccc3OC2C1` (stereo not given), the melting point lay within 121 to 140 °C. The figure for `CC(C)CC(NS(=O)(=O)c1cccc2ccccc12)C(=O)NC(C(C)C)C(O)c1c(-c2ccccc2)c1=O` (stereo not given) is 109 to 115 °C; for `CC(C)(C)OC(=O)N1CC[C@@H](NC(=O)c2ccc(-n3cc4ccccc4n3)cc2)C1` it is 211 to 212 °C; for `COc1cc(C)ccc1S(=O)(=O)OC(Cl)C(=O)c1ccccc1` (stereo not given) it is 110 to 112 °C. As to `O=C1NC(=O)C(=Cc2ccc([N+](=O)[O-])cc2)S1`, the melting point was 272 to 273 °C.

In the case of `O=C(C(c1ccc(Cl)cc1)c1c(Cl)cc(-n2ncc(=O)[nH]c2=O)cc1Cl)N1CCCCC1` (stereo not given), the melting point amounted to 217 °C. For `COC(=O)C(c1ccccc1)N1CCN(c2ccc(NC(=O)c3ccccc3-c3ccccc3)cc2)CC1` (stereo not given), the melting point was determined as 125 °C.

In turn, `CN1CC(=Cc2ccccc2Cl)C(=O)C(=Cc2ccccc2Cl)C1` had a melting point of 148 to 150 °C. The figure for `CCCCC(=O)Nc1nc2ccc(Cl)cc2nc1N` is 224 to 228 °C; for `O=C(O)COc1ccc(C(=O)Nc2cccc(Cl)c2Cl)cc1` it is 153 to 157 °C. In turn, `Cc1coc(-c2cccnc2)n1` registered a melting point of 40 °C.

Regarding `O=C1Cc2ccc([N+](=O)[O-])cc21`, the melting point fell in the range of 126 to 127 °C. Compound `CC(C)(C)OC(=O)[C@@H]1CC[C@H](CC(=O)O)N1Cc1ccccc1` had a melting point of 95 to 96 °C. The figure for `COc1ccc2c(c1)NC(=O)C(Cl)(Cl)CC2` is 148 to 150 °C.

For `C=CCS(=O)(=O)CC=C`, the melting point is 63 to 65 °C. Compound `Clc1cccc(-c2cc(Cl)nc3ccc(Br)cc23)c1` displayed a melting point of 125 °C.

`COC(=O)c1cnc(S)n1C1CCSc2ccccc21` (stereo not given) displayed a melting point of 163 °C.

As to `FC(F)(F)C1(c2cc(Cl)cc(Cl)c2)CC(c2ccc(-n3cccc3)cc2)=NO1` (stereo not given), the melting point is 206 to 208 °C. The compound `CC(C)(C(=O)Nc1cccc(C(F)(F)F)c1)N1COC(C(F)F)=C(c2ccccc2)C1=O` came in with a melting point of 58 to 60 °C. Consider `O=C(O)C1c2ccccc2CSc2ccc(Br)cc21` (stereo not given), for which the melting point was in the range of 185 to 186 °C. The figure for `O=S(=O)(Nc1ccc2cnccc2c1)c1ccccc1` is 204 to 206 °C. To `O=C(Nc1cc(Cl)c(Cl)c(Cl)c1)c1cc(Br)ccc1O` belongs 297 to 299 °C; to `CC(=O)Nc1ccc2c(c1)CC(CC(=O)O)C2=O` (single isomer, unassigned; (-)), 190 to 192 °C. `Cc1nnsc1C(=O)Nc1ccc(-n2nc(-c3nccs3)cc2C#N)cc1` yielded a melting point of 230 °C. The compound `Cc1c(C(=O)N=C(N)N)cc(S(C)(=O)=O)c(-n2ccnc2)c1C` displayed a melting point of 249 °C.

As for `Cn1nc(C(F)(F)F)c(CS(=O)(=O)C2=NOC(C)(C)C2)c1OC(F)F`, the melting point was in the range of 129 to 130 °C.

In turn, `Cc1c(-c2cnco2)[nH]c(=O)c2c1ccc1nc(Nc3c(Cl)cccc3Cl)n(C)c12` displayed a melting point greater than 300 °C. As to `Cc1ccc(-n2c3ccccc3c3ccccc32)cc1`, the melting point lay within 104 to 106 °C. `c1coc2cc3ccnc3cc2c1` came in with a melting point of 97 °C. The figure for `COc1ccc(NC=O)c(C=O)c1` is 125 to 127 °C; for `COc1ccc(OC(CCCN2CC3CCC(C2)N3C(=O)OC(C)(C)C)c2ccc(C#N)cc2)cc1OC` (stereo not given) it is 38 to 41 °C; for `COc1ccc(-c2c(C)[nH]c(=S)n2Nc2cccc(Cl)c2)cc1` it is 226 °C. The figure for `CN(C)Cc1cc(-c2c(-c3ccc(F)cc3)nn3c(Cl)cccc23)nc(NC2CCCC2)n1` is 68 to 75 °C; for `COc1ccccc1-c1nc(N)c(C(N)=O)nc1-c1ccc(=O)n(C(C)C)c1` it is 263 °C; for `CC(C)c1csc(C(C)C)c1NC(=S)NC(C)(C)C` it is 168 to 169 °C. As for `CCCCOc1nc2cccc(C(=O)OC)c2n1Cc1ccc(-c2ccccc2-c2nnn[nH]2)cc1`, the melting point was 146 to 148 °C. `Cc1oc(-c2ccccc2)nc1COc1cc(COc2ncccc2C#N)on1` yielded a melting point of 139 to 140 °C. As for `CC1CC1n1cc(C(=O)O)c(=O)c2cc(F)c(F)c(F)c21` (stereo not given), the melting point lay within 167 to 168 °C. Regarding `CSc1ccc(C(=O)c2cc(C)cc(CC(N)=O)c2N)cc1`, the melting point was in the range of 188 to 190 °C. Regarding `CNc1c(C#N)cnn1-c1ccc(Cl)c(Cl)c1Cl`, the melting point fell in the range of 163 to 165 °C. The figure for `CON(C)C(=O)c1cc(Br)ccc1N` is 80 to 81 °C; for `CON=Cc1nc2c(N)nc3cc(-c4ccccc4)ccc3c2s1` it is 259 to 261 °C. In the case of `COC(=O)CC1=CN=C(SC)NC1(C)O` (stereo not given), the melting point stood at 200 °C. Compound `CC(C)C(=CC(N)C(=O)O)CP(=O)(O)O` (stereo not given) gave a melting point of 201 °C. `CC(C)(O)Cn1c(CO)nc2c(N)nc3cc(CCCNS(C)(=O)=O)ccc3c21` yielded a melting point of 202 to 205 °C. As to `CCON=Cc1cc(-n2c(=O)cc(C(F)(F)F)n(C)c2=O)c(Cl)cc1Cl`, the melting point was in the range of 140 to 143 °C. The compound `CC(=O)OC1CSC(Oc2ccnc(-c3ccc(F)nc3)c2)C(OC(C)=O)C1OC(C)=O` (stereo not given) displayed a melting point of 151 °C. As for `COc1cc2c(cc1O)OCC(c1ccc(O)cc1)C2` (stereo not given), the melting point came to 159 °C. Consider `COc1ccnc(CCc2nc3cc(-c4ccc(S(=O)(=O)N(C)C)cc4C)cnc3[nH]2)c1`, for which the melting point lay within 179 to 180 °C. The figure for `O=C(CCl)C1=NOC(c2ccccc2F)C1` (stereo not given) is 42 to 44 °C.

Regarding `CC1CC(=O)c2c(SCc3ccccc3)ccc(-c3ccccn3)c2C1` (stereo not given), the melting point is 163 to 165 °C.

As to `O=Cc1c2ccccc2c(Br)c2ccccc12`, the melting point lay within 215 to 216 °C. With `CS(=O)(=O)Nc1cc(-c2ccc(S(C)(=O)=O)cc2)c(-c2ccc(F)cc2)s1`, the melting point was in the range of 87 to 90 °C. `CNc1nc(-c2ccc(C(F)(F)F)cc2)c2cc(C)sc2n1` gave a melting point of 233 °C. `O=C(O)CN1C(=O)C(=Cc2ccccc2C(=O)O)SC1=S` displayed a melting point greater than 300 °C. Consider `N#Cc1ccc(S(=O)(=O)c2ccc(O)cn2)cc1`, for which the melting point was 225 to 226 °C. The figure for `O=C(O)CCC1Cc2ccccc2C1` is 99 to 100 °C; for `Cc1ccc(N2C(=O)C(O)=C(C(=O)c3ccccc3C)C2c2ccc(C(C)C)cc2)nn1` (stereo not given) it is 221 °C; for `COCOc1ccc2sc(C=O)cc2c1` it is 81 to 82 °C. To `O=C(Nc1cc(C(F)(F)F)cc(C(F)(F)F)c1)C1C(=O)C2CCC(CC2)C1=O` (stereo not given) belongs 286 to 288 °C; to `COc1ccc(N2C(=O)O[C@H](COc3ccc(C#N)cc3)[C@@H]2C)cc1`, 127 to 128 °C. To `Cc1nc2cc(NC(=O)c3cc4cc(Cl)ncc4n3Cc3cccc(F)c3)ccc2n1C` belongs 240 to 242 °C.
